In ChEMBL document CHEMBL1137895, “Synthesis and activity of 2-[4-(4-[3H]-2-cyanophenyl)piperazinyl]-N-(2,4,6-[3H]3-3-methylphenyl)acetamide: a selective dopamine D4 receptor agonist and radioligand” (Bioorg Med Chem Lett, 2004) one finds Ki, EC50 and E data, which are given here for 5 compounds.

Usually Ki stands for a dissociation constant, usually derived from enzyme kinetics or from competition with a known ligand. High values mean a looser hold on the target, low ones a stronger hold on the target. The term EC50 denotes the concentration needed to bring the measured effect to its halfway point.

Assay [1] concerns the target T1, D(4) dopamine receptor (Homo sapiens, UniProt P21917).
T1 sequence (P21917 whole entry): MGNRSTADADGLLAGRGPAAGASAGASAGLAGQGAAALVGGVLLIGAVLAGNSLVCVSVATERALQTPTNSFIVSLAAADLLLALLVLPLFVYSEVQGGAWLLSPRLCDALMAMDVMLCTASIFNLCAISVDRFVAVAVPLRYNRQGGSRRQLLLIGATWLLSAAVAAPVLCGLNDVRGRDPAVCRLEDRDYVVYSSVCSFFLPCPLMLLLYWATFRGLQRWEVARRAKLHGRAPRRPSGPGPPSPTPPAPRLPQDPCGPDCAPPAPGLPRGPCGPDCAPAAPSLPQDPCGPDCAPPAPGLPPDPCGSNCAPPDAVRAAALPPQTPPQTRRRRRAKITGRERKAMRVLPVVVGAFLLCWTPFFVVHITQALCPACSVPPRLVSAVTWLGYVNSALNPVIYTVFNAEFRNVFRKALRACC
Kind of assay: In vitro ability to inhibit [3H]spiperone binding to human Dopamine receptor D4.4.

The target in assay [2] is T1, D(4) dopamine receptor. Kind of assay: In vitro ability to inhibit [3H]6b binding to human Dopamine receptor D4.4.
For assay [3], the target named is T1, D(4) dopamine receptor. As to the kind of experiment: Agonist activity was calculated in calcium flux assay using HEK293 cells co-transfected with human Dopamine receptor D4.4 and Galphaqo5. The class given is functional, cell-based.
For assay [4], the target named is T2, D(4) dopamine receptor (Homo sapiens) (UniProt P21917).
T2 sequence (whole entry): T1 sequence (P21917 whole entry)
As to the kind of experiment: Efficacy in calcium flux assay using HEK293 cells co-transfected with human Dopamine receptor D4.4 and G-alpha-qo5 relative to 10 uM dopamine. Type of assay: functional, cell-based.

In assay [5] the target is T1, D(4) dopamine receptor. Kind of assay: In vitro ability to inhibit [3H]spiperone binding to human Dopamine receptor D4.4 allele.

As to `COc1ccc(N2CCN(CC(=O)Nc3cccc(C)c3)CC2)cc1`, the Ki was determined as 101 nM at D(4) dopamine receptor [1] and 88.9 nM on D(4) dopamine receptor [2]. Also, the concentration giving a half-maximal response (EC50) at D(4) dopamine receptor [3] was greater than 10000 nM.

`Cc1cccc(NC(=O)CN2CCN(c3ccc(F)cc3)CC2)c1`: the Ki on D(4) dopamine receptor [1] worked out at 61.9 nM; on D(4) dopamine receptor [2] it was 90.7 nM. Besides, the half-maximal effective concentration (EC50) on D(4) dopamine receptor [3] was greater than 10000 nM.

On to `COc1ccccc1N1CCN(CC(=O)Nc2cccc(C)c2)CC1`, for which the E in assay [4] amounted to 60%. For the same compound, the values for the Ki on D(4) dopamine receptor [5] and at D(4) dopamine receptor [2] were 0.7 nM and 1.8 nM, respectively. Moreover, the EC50 at D(4) dopamine receptor [3] is 26.8 nM.

For the compound `Cc1cc(NC(=O)CN2CCN(c3ccc(Br)cc3C#N)CC2)ccc1Br`, the inhibition constant Ki at D(4) dopamine receptor [1] was 54.2 nM; at D(4) dopamine receptor [2] it was 14 nM. The EC50 on D(4) dopamine receptor [3] is greater than 10000 nM.

For `COc1cccc(N2CCN(CC(=O)Nc3cccc(C)c3)CC2)c1`, the Ki amounted to 46 nM on D(4) dopamine receptor [1] and 39.1 nM on D(4) dopamine receptor [2]. For the same compound, the concentration for a half-maximal effect (EC50) at D(4) dopamine receptor [3] is greater than 10000 nM.
